Reference: patent US7495088B1, “Modified nucleotide compounds” (Enzo Life Sciences, Inc., priority 1989, dated 2009)

Assays:
[1] = test system: Worthington venom exonuclease
[2] = test system: Bovine spleen phosphodiesterase
[3] = target: T1, Spleen phosphodiesterase (5'->3' exonuclease) (Bos taurus) (UniProt Q2KJJ8); assay: cleavage_in_vitro
T1 sequence: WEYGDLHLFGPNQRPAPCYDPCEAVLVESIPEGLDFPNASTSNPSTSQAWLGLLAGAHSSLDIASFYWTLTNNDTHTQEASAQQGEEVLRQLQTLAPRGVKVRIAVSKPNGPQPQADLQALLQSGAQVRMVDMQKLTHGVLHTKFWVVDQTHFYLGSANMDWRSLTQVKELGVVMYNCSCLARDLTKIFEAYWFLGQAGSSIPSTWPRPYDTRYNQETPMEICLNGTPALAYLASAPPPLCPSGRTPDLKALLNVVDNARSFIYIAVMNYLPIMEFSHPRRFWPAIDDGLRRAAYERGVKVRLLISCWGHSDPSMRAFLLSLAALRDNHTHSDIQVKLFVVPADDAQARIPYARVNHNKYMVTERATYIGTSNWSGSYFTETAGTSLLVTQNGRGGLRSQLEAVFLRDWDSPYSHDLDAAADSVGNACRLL

[4] = test system: Snake venom phosphodiesterase; details: pH 9
E. coli RNase H = E. coli RNase H (Escherichia coli, UniProt P0A7Y4); details: 2 units RNase H, 60 minutes 37° C.; for ability to form RNase H substrate, 14-mer binding site: 32P-labeled runoff transcripts of pSP65-ALA-D
Bovine spleen DNase II = target: T2, Bovine spleen DNase II (Bos taurus, UniProt P56541)
T2 sequence (P56541 20-365): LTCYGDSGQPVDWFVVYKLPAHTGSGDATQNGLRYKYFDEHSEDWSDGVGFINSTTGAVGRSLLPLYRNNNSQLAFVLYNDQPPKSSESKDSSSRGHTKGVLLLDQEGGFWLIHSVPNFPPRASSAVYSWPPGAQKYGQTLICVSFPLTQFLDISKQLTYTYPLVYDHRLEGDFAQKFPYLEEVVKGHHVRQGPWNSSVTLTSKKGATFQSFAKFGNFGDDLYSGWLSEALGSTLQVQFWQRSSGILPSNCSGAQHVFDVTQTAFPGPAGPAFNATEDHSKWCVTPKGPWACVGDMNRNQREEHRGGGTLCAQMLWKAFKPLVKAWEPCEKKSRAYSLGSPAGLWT

DNase I (pancreas) = DNase I (pancreas) (Bos taurus, UniProt P00639 P00639:23-282); assay: cleavage_in_vitro; Mg, Ca, 37 C; details: tags: Bethesda Research Laboratories
DNase II (spleen) = target: T3, DNase II (spleen) (Bos taurus, UniProt P56541 P56541:20-365); assay: cleavage_in_vitro; pH 4.6, 25 C; details: tags: Bethesda Research Laboratories
T3 sequence: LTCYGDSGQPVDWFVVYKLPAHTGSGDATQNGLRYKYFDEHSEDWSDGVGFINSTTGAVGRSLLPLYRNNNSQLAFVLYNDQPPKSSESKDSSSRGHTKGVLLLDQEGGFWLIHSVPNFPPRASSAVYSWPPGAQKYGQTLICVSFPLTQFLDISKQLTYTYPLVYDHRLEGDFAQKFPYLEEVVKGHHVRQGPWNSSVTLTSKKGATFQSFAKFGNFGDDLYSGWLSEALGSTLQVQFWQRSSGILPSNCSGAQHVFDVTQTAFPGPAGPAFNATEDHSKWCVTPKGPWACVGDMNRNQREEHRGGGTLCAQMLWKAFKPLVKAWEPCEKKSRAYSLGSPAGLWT

[5] = target: Venom phosphodiesterase (3'->5' exonuclease) (UniProt J3SEZ3 J3SEZ3:24-851); assay: cleavage_in_vitro; Worthington venom exonuclease; details: tags: Worthington
[6] = target: Snake venom phosphodiesterase (3'->5' exonuclease) (Crotalus adamanteus, UniProt J3SEZ3 J3SEZ3:24-851); assay: cleavage_in_vitro; Tris pH 9.0, 37 C; details: tags: Sigma
Chain of Snake venom phosphodiesterase (3'->5' exonuclease) (J3SEZ3 24-851, one chain of several): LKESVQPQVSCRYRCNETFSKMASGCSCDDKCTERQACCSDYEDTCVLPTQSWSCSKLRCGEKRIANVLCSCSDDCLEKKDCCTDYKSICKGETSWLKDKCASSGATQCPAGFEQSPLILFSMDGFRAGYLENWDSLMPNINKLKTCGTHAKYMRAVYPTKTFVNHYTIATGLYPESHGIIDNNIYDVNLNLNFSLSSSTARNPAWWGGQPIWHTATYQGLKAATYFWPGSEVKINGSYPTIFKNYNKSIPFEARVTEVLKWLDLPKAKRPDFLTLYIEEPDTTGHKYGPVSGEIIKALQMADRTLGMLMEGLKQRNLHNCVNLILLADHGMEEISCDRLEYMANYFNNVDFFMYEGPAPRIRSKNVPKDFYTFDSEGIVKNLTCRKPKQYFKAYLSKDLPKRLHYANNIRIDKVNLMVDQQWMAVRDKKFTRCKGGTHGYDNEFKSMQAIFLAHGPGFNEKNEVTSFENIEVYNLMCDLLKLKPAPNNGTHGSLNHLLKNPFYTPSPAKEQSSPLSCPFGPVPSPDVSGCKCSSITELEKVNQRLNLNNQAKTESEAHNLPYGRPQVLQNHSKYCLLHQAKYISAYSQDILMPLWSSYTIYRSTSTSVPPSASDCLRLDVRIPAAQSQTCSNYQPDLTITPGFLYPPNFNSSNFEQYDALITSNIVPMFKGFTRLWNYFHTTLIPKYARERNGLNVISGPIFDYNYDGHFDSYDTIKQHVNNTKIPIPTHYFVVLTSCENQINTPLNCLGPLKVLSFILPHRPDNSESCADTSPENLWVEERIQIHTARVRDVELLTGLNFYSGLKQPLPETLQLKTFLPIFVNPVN

Chain of E. coli RNase H (P0A7Y4 whole entry): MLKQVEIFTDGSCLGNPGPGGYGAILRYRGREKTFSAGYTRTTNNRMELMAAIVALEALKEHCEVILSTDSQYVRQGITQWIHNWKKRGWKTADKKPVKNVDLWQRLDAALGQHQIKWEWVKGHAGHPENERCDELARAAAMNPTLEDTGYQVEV
Chain of DNase I (pancreas) (P00639 23-282, one chain of several): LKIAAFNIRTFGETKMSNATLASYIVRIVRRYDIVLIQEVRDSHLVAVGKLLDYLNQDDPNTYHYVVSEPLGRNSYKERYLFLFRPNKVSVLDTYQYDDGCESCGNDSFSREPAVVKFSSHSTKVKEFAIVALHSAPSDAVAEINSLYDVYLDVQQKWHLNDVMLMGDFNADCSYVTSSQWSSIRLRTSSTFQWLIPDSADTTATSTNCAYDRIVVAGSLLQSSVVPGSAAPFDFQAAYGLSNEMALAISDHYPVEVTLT
Chain of Venom phosphodiesterase (3'->5' exonuclease) (J3SEZ3 24-851, one chain of several): as the sequence (J3SEZ3 24-851, one chain of several) above

“ATGCAGCTAAGTCA (chemistry not given here) [14-C/T-4]” was tested, and the “increase in half-life as compared to 14-C-4” value [1] was “two-fold”.

For “ATGCAGCTAAGTCA (chemistry not given here) [Oligomer 14-C-4]”, the “observation after spleen exonuclease digestion (electrophoretic mobility of the hybrid)” value (shortened to “observation”) [2] was “apparently shortened”.

For ATGCAGCTAAGTCA [14-C-4], the activity (relative half-life) ([3]; 3' methylphosphonate linkage at C4,C7,C13, all modified oligos tested more than 200 times as resistant, apparently shortened) was > 200.

ATGCAGCTAAGTCA [14-G-4] was tested, and the activity (relative half-life) ([3]; 3' methylphosphonate linkage at G3,G6,G11, >>200, apparently shortened) was > 200.

For “ATGCAGCTAAGTCA [14-G-4] (chemistry not given here) [Oligomer 14-G-4]”, the “observation” value [2] was “apparently shortened”.

For ATGCAGCTAAGTCA [14-P-4], the activity (relative half-life) ([3]; half-time about 30 min, citrate pH 6.0, 37 C) was 1.

With “ATGCAGCTAAGTCA [14-P-4] (chemistry not given here) [Oligomer 14-P-4]” the “Exonuclease Relative Half-Life, Venom (3′->5′-)” value [4] was 1.

With ATGCAGCTAAGTCA [14-T-4] the activity (relative half-life) ([3]; 3' methylphosphonate linkage at T2,T8,T12, >>200, apparently shortened) was > 200.

In the case of “ATGCAGCTAAGTCA [14-T-4] (chemistry not given here) [Oligomer 14-T-4]”, the “observation” value [2] is reported as “apparently shortened”.

With CTGGGGCTGCAT [12-Me^5a-1] the “ability to form RNase H substrate / cleavage of RNA, 12-mer binding site” value (E. coli RNase H; NcoI runoff transcript) was “permitted cleavage of most of the RNA”.

“TGACTTAGCTGCAT (chemistry not given here) [Oligomer 14-P-3]” was tested, and the “Tissue Culture Stabilities, Relative Half-Life, +FCS. B95-8” value (B95-8 cells) was 1, the “half-life for digestion by DNase II” value (Bovine spleen DNase II; bovine) was 10 h and the “Endonuclease Relative Half-Life, DNase II” value (Bovine spleen DNase II; pH 4.6) was 1.

In the case of TGACTTAGCTGCAT [14-A-3], the activity (relative half-life) ([3]; 3' methylphosphonate linkage at A3,A7,A13, >>200) is reported as > 200.

For “TGACTTAGCTGCAT [14-A-3] (chemistry not given here) [Oligomer 14-A-3]”, the “ability to form RNase H substrate, 14-mer binding site” value (“ability … 14-mer binding site” for short) (E. coli RNase H) was “formed RNase H substrates”.

With TGACTTAGCTGCAT [14-C-3] the activity (relative half-life) ([3]; 3' methylphosphonate linkage at C4,C9,C12, >>200) was > 200.

In the case of “TGACTTAGCTGCAT [14-C-3] (chemistry not given here) [Oligomer 14-C-3]”, the “ability … 14-mer binding site” value (E. coli RNase H) is reported as “formed RNase H substrates”.

With TGACTTAGCTGCAT [14-Me6a-3] the activity (relative half-life) ([3]; 3' methylphosphonate linkage at positions 2,4,6,8,10,12, >>200) was > 200.

In the case of “TGACTTAGCTGCAT [14-Me^5a-3] (chemistry not given here)”, the “ability … 14-mer binding site” value (E. coli RNase H) is reported as “able to form RNase H substrates”, the “3′-exonucleolytic cleavage in tissue culture” value (from here on “3′-exonucleolytic cleavage”) (B95-8 cells) is reported as “single stepwise cleavage” and the “Tissue Culture Stabilities, Relative Half-Life, +FCS. B95-8” value (B95-8 cells) is reported as 30.

For “TGACTTAGCTGCAT [14-Me^5b-3] (chemistry not given here)”, the “ability … 14-mer binding site” value (E. coli RNase H) was “able to form RNase H substrates”, the “3′-exonucleolytic cleavage” value (B95-8 cells) was “absence of cleavage” and the “Tissue Culture Stabilities, Relative Half-Life, +FCS. B95-8” value (B95-8 cells) was 30.

In the case of “TGACTTAGCTGCAT [14-Me^6a-3] (chemistry not given here)”, the “ability … 14-mer binding site” value (E. coli RNase H) is reported as “did not”, the “3′-exonucleolytic cleavage” value (B95-8 cells) is reported as “single stepwise cleavage” and the “Tissue Culture Stabilities, Relative Half-Life, +FCS. B95-8” value (B95-8 cells) is reported as 30.

“TGACTTAGCTGCAT [14-Me^6b-3] (chemistry not given here)” was tested, and the “3′-exonucleolytic cleavage” value (B95-8 cells) was “absence of cleavage” and the “Tissue Culture Stabilities, Relative Half-Life, +FCS. B95-8” value (B95-8 cells) was 30.

TGACTTAGCTGCAT [14-P-3] was tested, and the activity (relative half-life) ([3]; half-time about 30 min, citrate pH 6.0, 5 mM EDTA, 37 C) was 1.

“TGACTTAGCTGCAT [14-P-3] (chemistry not given here) [Oligomer 14-P-3, reference compound]” was tested, and the “Exonuclease Relative Half-Life, Venom (3′->5′-)” value [4] was 1 and the “ability … 14-mer binding site” value (E. coli RNase H) was “formed RNase H substrates”.

B1: 14-Me5a-3 (ssDNA)
DNA: TGACTTAGCTGCAT
modifications: 3' methylphosphonate linkage at positions 2,4,6,10,12
In the case of B1, the activity (DNase I (pancreas)) is reported as 300 relative half-life and the activity (DNase II (spleen)) is reported as > 5 relative half-life.

B2: 14-C/T-4 (ssDNA)
DNA: ATGCAGCTAAGTCA
modifications: 3' methylphosphonate linkage at T12,C13
With B2 the activity [5] was ~2 half-life relative to 14-C-4.

B3: 14-Me5b-3 (ssDNA)
DNA: TGACTTAGCTGCAT
modifications: 3' methylphosphonate linkage at positions 2,4,6,8,13
B3 was tested, and the activity (DNase I (pancreas)) was 12 relative half-life and the activity (DNase II (spleen)) was > 5 relative half-life.

B4: 14-Me6b-3 (ssDNA)
DNA: TGACTTAGCTGCAT
modifications: 3' methylphosphonate linkage at positions 2,4,6,9,11,13
In the case of B4, the activity (DNase I (pancreas)) is reported as > 600 relative half-life and the activity (DNase II (spleen)) is reported as > 5 relative half-life.

B5: 14-C-3 (ssDNA)
DNA: TGACTTAGCTGCAT
modifications: 3' methylphosphonate linkage at C4,C9,C12
For B5, the activity [6] was > 500 relative half-life, the activity (DNase I (pancreas)) was 6 relative half-life and the activity (DNase II (spleen)) was 2 relative half-life.

B6: 14-G-4 (ssDNA)
DNA: ATGCAGCTAAGTCA
modifications: 3' methylphosphonate linkage at G3,G6,G11
With B6 the activity [6] was 100 relative half-life.

B7: 14-A-3 (ssDNA)
DNA: TGACTTAGCTGCAT
modifications: 3' methylphosphonate linkage at A3,A7,A13
B7 was tested, and the activity (DNase II (spleen)) was > 5 relative half-life.

B8: 14-Me6a-3 (ssDNA)
DNA: TGACTTAGCTGCAT
modifications: 3' methylphosphonate linkage at positions 2,4,6,8,10,12
B8 was tested, and the activity (DNase I (pancreas)) was > 600 relative half-life and the activity (DNase II (spleen)) was > 5 relative half-life.

B9: 14-T-4 (ssDNA)
DNA: ATGCAGCTAAGTCA
modifications: 3' methylphosphonate linkage at T2,T8,T12
For B9, the activity [6] was > 500 relative half-life.
